# How the values were obtained:
# Type in all cases: biochemical
# ACAT [1] = assay: ACAT inhibition in rat liver microsomes
# Text: (§1) The ability of compounds to inhibit ACAT can be measured using an in-vitro test described in Field & Salone (1982) Biochemica et Biophysica, 712, 557-570. The test assesses the ability of a test compound to inhibit the acylation of cholesterol by oleic acid by measuring the amount of radiolabeled cholesterol oleate formed from radiolabeled oleic acid in a tissue preparation containing rat liver microsomes.
# (§2) The inhibitory activity of sulfamic acid [[2,4,6-tris(1-methylethyl)phenyl]acetyl-2,6-bis(1-methylethyl)phenyl ester against DGAT1, DGAT2 and ACAT was measured in rat and human liver microsomes. DGAT1 and DGAT2 can be distinguished since DGAT2 is not active at high magnesium concentrations (concentrations of 50 mM or higher) whilst DGAT1 retains its activity at high magnesium concentrations.
# ACAT [2] = assay: ACAT inhibition in human liver microsomes
# Text: as §1, §2
# DGAT1 [3] = biological target: T1, DGAT1 (Homo sapiens, UniProt O75907); assay: DGAT1 inhibition at 100 mM Mg in human liver microsomes
# T1 construct: from tissue; host or cells: human liver microsomes
# T1 sequence (O75907 1-488): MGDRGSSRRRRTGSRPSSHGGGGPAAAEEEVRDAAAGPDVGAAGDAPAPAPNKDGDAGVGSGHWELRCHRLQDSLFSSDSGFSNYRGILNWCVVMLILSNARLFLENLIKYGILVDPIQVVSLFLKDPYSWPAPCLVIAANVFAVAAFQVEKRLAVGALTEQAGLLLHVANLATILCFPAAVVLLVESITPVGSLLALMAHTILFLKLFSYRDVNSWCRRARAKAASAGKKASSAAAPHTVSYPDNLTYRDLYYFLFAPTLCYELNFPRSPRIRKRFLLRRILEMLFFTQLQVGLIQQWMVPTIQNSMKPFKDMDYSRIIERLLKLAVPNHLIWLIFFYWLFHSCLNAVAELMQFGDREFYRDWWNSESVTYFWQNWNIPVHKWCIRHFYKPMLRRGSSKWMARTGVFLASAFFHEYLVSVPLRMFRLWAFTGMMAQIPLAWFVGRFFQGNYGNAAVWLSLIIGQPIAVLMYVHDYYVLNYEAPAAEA
# Procedure: (§3) The ability of compounds to inhibit DGAT can be measured as described in Coleman (1992) Methods in Enzymology 209, 98-102.
# as §2
# (§4) The results obtained, expressed as the concentration of inhibitor at which 50% of the enzyme activity is inhibited, i.e. the IC50, are as follows: […]
# DGAT1 [4] = biological target: T2, DGAT1 (Rattus norvegicus, UniProt Q9ERM3); assay: DGAT1 inhibition at 100 mM Mg in rat liver microsomes
# T2 construct: from tissue; host or cells: rat liver microsomes
# T2 sequence (Q9ERM3 1-498): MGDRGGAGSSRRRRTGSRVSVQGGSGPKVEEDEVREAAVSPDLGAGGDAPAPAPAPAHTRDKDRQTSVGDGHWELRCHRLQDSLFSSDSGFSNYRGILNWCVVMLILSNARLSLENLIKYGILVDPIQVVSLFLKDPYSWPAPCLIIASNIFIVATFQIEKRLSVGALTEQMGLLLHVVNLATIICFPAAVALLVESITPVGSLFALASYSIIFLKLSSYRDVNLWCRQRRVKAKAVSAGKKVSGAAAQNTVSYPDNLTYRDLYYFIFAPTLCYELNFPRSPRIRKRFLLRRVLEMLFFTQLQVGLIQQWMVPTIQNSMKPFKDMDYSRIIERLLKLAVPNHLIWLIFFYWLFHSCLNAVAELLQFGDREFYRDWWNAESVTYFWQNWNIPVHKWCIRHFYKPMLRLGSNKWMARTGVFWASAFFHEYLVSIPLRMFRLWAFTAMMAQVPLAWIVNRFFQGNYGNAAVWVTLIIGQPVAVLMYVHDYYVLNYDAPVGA
# Procedure: as §3, §2, §4
# DGAT1 and DGAT2 [5] = assay: DGAT inhibition (DGAT1 and DGAT2) in rat liver microsomes
# Procedure: as §3, §2, §4
# DGAT1 and DGAT2 [6] = assay: DGAT inhibition (DGAT1 and DGAT2) in human liver microsomes
# Procedure: as §3, §2, §4
compound,measurement,setting,value
"CC(C)c1cc(C(C)C)c(CC(=O)NS(=O)(=O)Oc2c(C(C)C)cccc2C(C)C)c(C(C)C)c1 [sulfamic acid [[2,4,6-tris(1-methylethyl)phenyl]acetyl-2,6-bis(1-methylethyl)phenyl ester]",IC50,ACAT [1],1.03 µM
same,IC50,ACAT [2],5.67 µM
same,IC50,DGAT1 [3],3.03 µM
same,IC50,DGAT1 [4],2.28 µM
same,IC50,DGAT1 and DGAT2 [5],3.41 µM
same,IC50,DGAT1 and DGAT2 [6],7.95 µM

# — patent publication US20070155832A1, “Use of sulfonamide compounds for the treatment of diabetes and/or obesity” (priority 2003, published 2007)
